The test system of test [1] is primary rat hippocampal neurons. Conditions: for effect on Elk-1 induced cell death: Elk-1 GFP mRNA photoporated into dendrites.
Procedure: Cultured primary rat hippocampal neurons were bathed in 10-15 μg capped mRNA in 1 ml extracellular saline at 37° C. In some cases, neurons were pre-incubated with the translation inhibitor, anisomycin (5 μM), the mitochondrial PTP inhibitor, bongkrekic (BKA; 25 μM), or the transcriptional inhibitor, actinomycin D (1 μg/ml).
Samples were imaged and photoporated using a Prairie Ultima multiphoton scan head attached to an Olympus BX61 fixed-stage upright microscope equipped with a 40× water immersion lens (LUMPlanFI/IR, N.A. 0.8). 8 to 16 points were selected over a 2 μm×2 μm area for photoporation. A Ti-sapphire laser (Mai-Tai®, Spectral-Physics, Mountain View, Calif.) was used to make transient poration sites for 5 milliseconds at 30 mW (at back aperture of lens) energy. After photoporation, samples were transferred to an Olympus IX81 inverted microscope for simultaneous GFP fluorescence and DIC imaging. All images were processed with Metamorph (Universal Imaging Corporation) image processing software. For cell death assays, a LIVE/DEAD cell viability/cytotoxicity kit (Molecular Probes) was used according to the manufacturer's instructions.
A cell viability/cytotoxicity assay (Invitrogen Molecular Probes, Carlsbad, Calif.) was used to confirm the morphological observations of cell death following Elk-1 GFP mRNA photoporation. […] Obvious morphological signs of cell death may take hours to become apparent, whereas the use of a nuclear dye allows rapid identification of neurons that are in the process of dying.
Test [2] has the same test system. Kind of test: Elk-1 immunocytochemistry after mGluR stimulation. The format is cell-based. Conditions: 30-minute application, 50 μM, n=7.
Test [3] has the same test system. Kind of test: DAPI and Hoechst nuclear stains for pycnotic nuclei. The conditions noted are these: cells treated for 3 hours with 30 μM. The format is cell-based. The protocol:
FIG. 5A is a graph depicting cell counts after Elk-1 over-expression. Neurons electroporated with Elk-1 in a pcDNA vector were stained with a MAP2 antibody at 48, 72, 96 and 168 hours after plating. Two 5× images of MAP2 immunoreactive neurons were taken for each experiment, and MAP2 positive neurons were counted manually. Shown are the percent decreases in MAP2 positive neurons compared to control. (Line=best fit) FIG. 5B are images of MAP2 immunoreactivity from neurons electroporated with a control pcDNA vector (right image) or with Elk-1 in pcDNA (left image). FIG. […] Scale bar=20 μm.
In order to assess whether neurons were dying via apoptosis or necrosis following Elk-1 over-expression, DAPI and Hoechst nuclear stains were used to look for evidence of pycnotic nuclei, characteristic of an apoptotic phenotype.

Test [4] relates to primary rat corticol neurons. Kind of test: Elk-1 association with mitochondria, Western blotting of mitochondrial fractions. The format is cell-based. The conditions noted are these: Western blotting after drug application. Background: In western blotting, separated proteins are transferred to a membrane and probed.
Procedure: Mitochondrial fractionation for western blots: A mitochondrial isolation kit (Pierce) was used according to the manufacturer's instructions to isolate mitochondria from primary neuronal cultures. Once isolated, mitochondria were lysed in buffer containing: 150 mM NaCl, 1% NP-40, 0.5% Deoxycholic acid, 0.1% SDS, 50 mM Tris, 10 ug/mL Aprotinin, 5 ug/mL Leupeptin, 1 mM sodium orthovanidate, 1 mM PMSF and 100 ug/mL TPCK. Lysate was then used for western blotting with the following antibodies: Elk-1 (Cell Signaling Technology), VDAC 1 (Santa Cruz Biotechnology), NeuN (Abcam).
To examine whether specific cellular insults could increase or decrease the association between Elk-1 and mitochondria, primary rat corticol neurons were exposed to a variety of compounds known to induce cell death in neurons, and mitochondrial fractions were then isolated and used for Western blotting.

Entries after “also recorded” stand apart in the source; their conditions may differ. Read-outs that look alike come from different tables or passages of the source. *1 amine or outer side, *2 acyl side, *3 side chain or, on linkers, in order; H or OH if unused. Where a SMILES comes first, the peptide text is derived from it. Bridges are numbered along the chain shown (N, C = ends). Roman numbers before positions name the chains, in order. [ ]: non-standard residue; d: D form. Actinocin(9to1) = Cc1c2oc3c(C)ccc(C(=O)[*:1])c3nc-2c(C(=O)[*:2])c(N)c1=O; NMeV = CN[C@H](C(=O)O)C(C)C; Sar = CNCC(=O)O

With `CO[C@H](C/C=C\C=C\CC/C=C/C[C@H](C)/C=C/C(=C\C(=O)O)CC(=O)O)/C(C)=C\C=C(/C)C(=O)O` [BKA, bongkrekic acid], the “effect on Elk-1 induced cell death” value in test [1] (pre-incubation with mitochondrial PTP inhibitor 25 μM, n=10) is given as “blocked; also recorded: cells did not die”. With `N[C@H](C(=O)O)c1cc(O)cc(O)c1` [DHPG, dihydrophenylglycine], in test [2], the “Elk-1 immunoreactivity in both cell somas and dendrites” value is recorded as “substantial increase”. As for `Cc1c2oc3c(C)ccc(C(=O)N[C@@H]4C(=O)N[C@H](C(C)C)C(=O)N5CCC[C@H]5C(=O)N(C)CC(=O)N(C)[C@@H](C(C)C)C(=O)O[C@@H]4C)c3nc-2c(C(=O)N[C@@H]2C(=O)N[C@H](C(C)C)C(=O)N3CCC[C@H]3C(=O)N(C)CC(=O)N(C)[C@@H](C(C)C)C(=O)O[C@@H]2C)c(N)c1=O` [actinomycin D] (I: T[dV]P[Sar][NMeV] / II: T[dV]P[Sar][NMeV]; ester I:1-I:C, II:1-II:C; linker I:N-II:N via Actinocin(9to1)), the “effect on Elk-1 induced cell death” value in test [1] (pre-incubation with transcriptional inhibitor 1 μg/ml, n=7) is given as “inhibited”. `COc1ccc(C[C@H]2NC[C@H](O)[C@H]2OC(C)=O)cc1` [anisomycin]: the “effect on Elk-1-induced cell death” value in test [1] (pre-incubation with translational inhibitor 5 μM, Elk-1 GFP mRNA photoporated) is “blocked; also recorded: absence of cell death”.

`CC[C@@]1(O)C(=O)OCc2c1cc1n(c2=O)Cc2cc3ccccc3nc2-1` [camptothecin]: in test [3], the pycnotic nuclei entry was “presence of pycnotic nuclei”. Besides, in test [4], the “Elk-1 association with mitochondria” value was “increased its association with mitochondria”.
